Positions count from the first letter of the chain named. Where only a bound is given, the exact number is not on record here.

In series [1] the target is T1, human androgen receptor E709Y mutant (Homo sapiens, UniProt P10275, E710Y).
T1 construct: expressed in transfected cells; host or cells: PC-3 cells, transient transfection with a pSG5-derived plasmid
T1 sequence (P10275 1-920 E710Y): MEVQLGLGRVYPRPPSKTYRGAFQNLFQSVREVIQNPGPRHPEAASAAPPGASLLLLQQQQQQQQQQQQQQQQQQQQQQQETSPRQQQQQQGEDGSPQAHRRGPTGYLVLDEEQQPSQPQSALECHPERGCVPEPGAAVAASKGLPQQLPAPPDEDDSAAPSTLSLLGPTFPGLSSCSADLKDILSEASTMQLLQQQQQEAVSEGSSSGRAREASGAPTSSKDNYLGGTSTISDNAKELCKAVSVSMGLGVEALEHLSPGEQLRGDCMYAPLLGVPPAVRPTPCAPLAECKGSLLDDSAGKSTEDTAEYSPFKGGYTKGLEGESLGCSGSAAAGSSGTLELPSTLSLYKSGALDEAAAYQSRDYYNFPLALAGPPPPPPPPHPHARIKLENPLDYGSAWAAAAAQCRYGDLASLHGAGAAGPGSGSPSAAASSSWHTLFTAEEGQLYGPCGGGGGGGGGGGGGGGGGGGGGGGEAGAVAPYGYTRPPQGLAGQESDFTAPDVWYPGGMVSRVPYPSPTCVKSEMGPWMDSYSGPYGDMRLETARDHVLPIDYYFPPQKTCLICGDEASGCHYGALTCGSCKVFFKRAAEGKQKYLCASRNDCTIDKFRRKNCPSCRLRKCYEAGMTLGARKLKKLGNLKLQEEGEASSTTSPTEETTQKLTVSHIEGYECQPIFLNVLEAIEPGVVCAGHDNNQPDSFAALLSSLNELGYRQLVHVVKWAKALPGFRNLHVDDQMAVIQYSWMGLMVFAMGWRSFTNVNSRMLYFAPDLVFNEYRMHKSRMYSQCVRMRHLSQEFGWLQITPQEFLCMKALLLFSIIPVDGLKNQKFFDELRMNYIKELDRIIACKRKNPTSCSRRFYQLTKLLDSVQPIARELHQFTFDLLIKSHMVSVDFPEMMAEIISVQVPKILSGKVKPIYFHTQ
Description: Cell-based transactivation assay for human androgen receptor mutant E709Y.
Description: Cell-Based Transactivation Assay for Human Androgen Receptor Mutant E709Y
PC-3 cells (Kaighn et al., Invest. Urol. 17:16-23, 1979) were grown in 5% charcoal-stripped medium and seeded at a concentration of 10000 cells per well in a 96-well plate. They were transiently transfected with a pSG5-derived plasmid (#216201 from Stratagene, La Jolla, Calif., USA) coding for the human androgen receptor E709Y mutant (Georget et al., Molecular Endocrinology, 20(4): 724-734, 2006) and an MMTV-Luciferase reporter plasmid based on pGL4.14 14 (#E6691, Promega Corporation, Madison, Wis., USA). The compound to be tested was added at a concentration range varying from 1×10^−9 to 1×10^−6 M together with 1×10^−10 R1881. After 24 h incubation at 37° C. in a 5% CO2 atmosphere, 100 μl of Steady Glo Lysis and Detection reagent (Steady Glo Luciferase assay system E2550 from Promega Corporation. Madison, Wis., USA) were added. Antagonistic activity was determined by measuring Luciferase activity in a Victor 3 Luminometer (PerkinElmer, Waltham, Mass., USA) using the Steady Glo Luciferase Assay (E2550, Promega). IC50 values were calculated for anti-androgenic activity.

For series [2], the target named is T2, human androgen receptor W741C mutant (Homo sapiens, UniProt P10275, W742C).
T2 construct: expressed in transfected cells; host or cells: PC-3 cells, transient transfection with a pSG5-derived plasmid
T2 sequence (P10275 1-920 W742C): T1 sequence (P10275 1-920 E710Y) with Y710E, W742C
The experiment in a line: Cell-based transactivation assay for human androgen receptor mutant W741C.
Description: Cell-Based Transactivation Assay for Human Androgen Receptor Mutant W741L or W741C
PC-3 cells (Kaighn et al., Invest. Urol. 17:16-23, 1979) were grown in 5% charcoal-stripped medium and seeded at a concentration of 10000 cells per well in a 96-well plate. They were transiently transfected with a pSG5-derived plasmid (#216201 from Stratagene, La Jolla, Calif., USA) coding for the human androgen receptor W741L or W741C mutant Mara et al., Cancer Research, 63: 149-153, 2003) and an MMTV-Luciferase reporter plasmid based on pGL4.14 14 (#E6691, Promega Corporation, Madison, Wis., USA). The compound to be tested was added at a concentration range varying from 1×10^−9 to 1×10 M together with 1×10^−10 R1881. After 24 h incubation at 37° C. in a 5% CO2 atmosphere, 100 μl of Steady Glo Lysis and Detection reagent (Steady Glo Luciferase assay system E2550 from Promega Corporation. Madison, Wis., USA) were added. Antagonistic activity was determined by measuring Luciferase activity in a Victor 3 Luminometer (PerkinElmer, Waltham, Mass., USA) using the Steady Glo Luciferase Assay (E2550, Promega). IC50 values were calculated for anti-androgenic activity.

Series [3] can be described thus: Determination of metabolic stability in vitro (calculation of hepatic in vivo blood clearance). Format: in vitro ADME. As to conditions: pH 7.4, human liver microsomes, calculated from half-life, read-out: calculated hepatic in vivo blood clearance (CL) (converted). The procedure:
Determination of Metabolic Stability In Vitro (Including Calculation of Hepatic In Vivo Blood Clearance (CL) and of Maximal Oral Bioavailability (Fmax))
The metabolic stability of test compounds in vitro was determined by incubating them at 1 μM with a suspension of human liver microsomes in 100 mM phosphate buffer, pH7.4 (NaH2PO4×H2O+Na2HPO4×2H2O) at a protein concentration of 0.5 mg/ml and at 37° C. The reaction was activated by adding a co-factor mix containing 1.2 mg NADP, 3 IU glucose-6-phosphate dehydrogenase, 14.6 mg glucose-6-phosphate and 4.9 mg MgCl2 in phosphate buffer, pH 7.4. Organic solvent in the incubations was limited to <0.2% dimethylsulfoxide (DMSO) and <1% methanol. During incubation, the microsomal suspensions were continuously shaken and aliquots were taken at 2, 8, 16, 30, 45 and 60 min, to which equal volumes of cold methanol were immediately added. Samples were freezed at −20° C. over night, subsequently centrifuged for 15 minutes at 3000 rpm and the supernatant was analyzed with an Agilent 1200 HPLC-system with LCMS/MS detection.
The half-life of a test compound was determined from the concentration-time plot. From the half-life the intrinsic clearances were calculated. Together with the additional parameters liver blood flow, specific liver weight and microsomal protein content the hepatic in vivo blood clearance (CL) and the maximal oral bioavailability (Fmax) were calculated for the different species. The following parameter values were used: Liver blood flow—1.3 l/h/kg human; specific liver weight—21 g/kg human; microsomal protein content—40 mg/g.
With the described assay only phase-I metabolism of microsomes is reflected, e.g. typically oxidoreductive reactions by cytochrome P450 enzymes and flavin mono-oxygenases (FMO) and hydrolytic reactions by esterases (esters and amides).

Regarding `CN1C(=S)N(c2ccc(C#N)c(C(F)(F)F)c2)C(=O)C1(C)C` [2-(Trifluoromethyl)-4-(3,4,4-trimethyl-5-oxo-2-thioxoimidazolidin-1-yl)benzonitrile, reference compound], the IC50 (commonly the concentration at which inhibition is half-maximal) in series [1] stood at 0.117 µM; in series [2], 0.0212 µM.

Take `CC1(C)C(=O)N(c2ccc(C#N)c(C(F)(F)F)c2)C(=S)N1CCCCO` [4-[3-(4-Hydroxybutyl)-4,4-dimethyl-5-oxo-2-thioxoimidazolidin-1-yl]-2-(trifluoromethyl)benzonitrile, reference compound]: the results for the IC50 in series [1] and in series [2] were more than 1 µM and 0.0271 µM, respectively.

`CC1(C)C(=O)N(c2ccc(C#N)c(C(F)(F)F)c2)C(=S)N1Cc1ccc(F)cc1` [Comparative data^4]: the IC50 in series [1] and in series [2] was more than 1 µM throughout.

As for `CC1(C)C(=O)N(c2ccc(C#N)c(C(F)(F)F)c2)C(=S)N1Cc1ccccc1` [Comparative data^4], the IC50 in series [1] amounted to 0.587 µM; in series [2], 0.142 µM.

As for `CC1(C)C(=O)N(c2ccc(C#N)c(C(F)(F)F)c2)C(=S)N1Cc1ccc(-n2ccnc2)nc1` [Example 1, 4-(3-{[6-(1H-Imidazol-1-yl)pyridin-3-yl]methyl}-4,4-dimethyl-5-oxo-2-thioxoimidazolidin-1-yl)-2-(trifluoromethyl)benzonitrile], the results for the IC50 in series [1] and in series [2] were 0.00721 µM and 0.216 µM, respectively. The CLhep predicted at 1 µM in series [3] was 4.33 mL/min/kg.

The molecule `CC1(C)C(=O)N(c2ccc(C#N)c(C(F)(F)F)c2)C(=S)N1Cc1ccc(C(F)(F)F)nc1` [Example 2, 4-(4,4-Dimethyl-5-oxo-2-thioxo-3-{[6-(trifluoromethyl)pyridin-3-yl]methyl}imidazolidin-1-yl)-2-(trifluoromethyl)benzonitrile] returned an IC50 in series [1] of 0.0142 µM. Further, in series [3], the CLhep predicted at 1 µM is 6.5 mL/min/kg.

Consider `CC1(C)C(=O)N(c2ccc(C#N)c(C(F)(F)F)c2)C(=S)N1Cc1ccc(N2CCOCC2)nc1` [Example 4, 4-(4,4-Dimethyl-3-{[6-(morpholin-4-yl)pyridin-3-yl]methyl}-5-oxo-2-thioxoimidazolidin-1-yl)-2-(trifluoromethyl)benzonitrile], for which the IC50 worked out at 0.0772 µM in series [1] and 0.27 µM in series [2].

In turn, `CC1(C)C(=O)N(c2ccc(C#N)c(C(F)(F)F)c2)C(=S)N1Cc1ccc(N2CCS(=N)(=O)CC2)nc1` [Example 9, 4-(3-{[6-(1-Imino-1-oxido-1λ^6-thiomorpholin-4-yl)pyridin-3-yl]methyl}-4,4-dimethyl-5-oxo-2-thioxoimidazolidin-1-yl)-2-(trifluoromethyl)benzonitrile] came in with an IC50 in series [1] of 0.00565 µM. In addition, the CLhep predicted at 1 µM in series [3] is 8 mL/min/kg.

As for `CC(C)(O)COc1ccc(CN2C(=S)N(c3ccc(C#N)c(C(F)(F)F)c3)C(=O)C2(C)C)cn1` [Example 10, 4-(3-{[6-(2-Hydroxy-2-methylpropoxy)pyridin-3-yl]methyl}-4,4-dimethyl-5-oxo-2-thioxoimidazolidin-1-yl)-2-(trifluoromethyl)benzonitrile], the values for the IC50 in series [1] and in series [2] were 0.0263 µM and 0.115 µM, respectively. For the same molecule, in series [3], the CLhep predicted at 1 µM is 5.83 mL/min/kg.

In series [1], `Cc1nc(C(F)(F)F)ccc1CN1C(=S)N(c2ccc(C#N)c(C(F)(F)F)c2)C(=O)C1(C)C` [Example 13, 4-(4,4-Dimethyl-3-{[2-methyl-6-(trifluoromethyl)pyridin-3-yl]methyl}-5-oxo-2-thioxoimidazolidin-1-yl)-2-(trifluoromethyl)benzonitrile] yielded an IC50 of 0.0247 µM. Moreover, in series [3], the CLhep predicted at 1 µM is 3.17 mL/min/kg.

The values are drawn from US20120251551A1, “Substituted (Heteroarylmethyl)thiohydantoins” (BAYER PHARMA AKTIENGESELLSCHAFT, priority 2009, published 2012).
